Laboratory results: patent US20090030086A1, “ANTIMICROBIAL AGENTS” (priority 2005, published 2009)
In brackets after ≈: the same amount, converted by molar mass. Read-outs that look alike come from different tables or passages of the source.

How the values were obtained:
S. aureus ATCC 29213 [1] = experiment: MIC assay; format: cell-based, Staphylococcus aureus; details: S. aureus ATCC 29213, Mueller-Hinton broth pH 7.2, aerobic, 37° C., 24 hours
Description: 1. Staphylococcus aureus—the principal staphylococcal test micro-organism used in these studies was Staphylococcus aureus ATCC 29213. This strain is the one recommended for QC/QA purposes in Minimum Inhibitory Concentration (MIC) assays by the US Clinical and Laboratory Standards Institute (formerly the NCCLS), an FDA-recognised body.
(§1) The staphylococci and enterococci were cultured and maintained on Mueller-Hinton Medium (agar and broth) at pH 7.2; they were incubated aerobically at 37° C. for 24 hours.
(§2) This is a standard international method for quantitatively assessing the antimicrobial activity of a compound in a liquid medium. The method used a 96-well microtitre plate, capable of holding about 200 μl of liquid per well. […] The culture media were as described above for the relevant test organisms.
(§3) The wells were inoculated with a liquid suspension of freshly grown micro-organism and incubated under the conditions described above. After incubation, the microtitre plate was examined visually (with the aid of a light box) for cloudiness in each well, which would indicate microbial growth. The MIC value was recorded as the lowest concentration of test compound required to inhibit microbial growth, i.e., the lowest concentration for which the liquid in the well remained clear.
(§4) The assays were conducted in duplicate and included both negative (culture medium only) and positive (culture medium, diluting solvent and inoculum) controls.
(§5) The following experiments all used S. aureus ATCC 29213 as the test organism. MIC, MBC and DDA assays, as described above, were carried out using a range of different benzoquinones and hydroquinones. Supplemented DDA assays, in the presence of salt, lipid and blood, were also conducted.

S. aureus ATCC 29213 [2] = experiment: MBC assay; format: cell-based, Staphylococcus aureus
Description: as §1
(§6) This assay, normally carried out after an MIC assay, determines the minimum concentration of a compound that is lethal to the micro-organism being tested.
(§7) These samples were then individually sub-cultured on non-selective agar medium, under the incubation conditions described above. Following incubation they were examined visually for bacterial growth.
as §5

S. aureus ATCC 29213 [3] = experiment: Supplemented disc diffusion assay; format: cell-based, Staphylococcus aureus; details: S. aureus ATCC 29213, 200 μg per disc (thymoquinone 50 μg, 2,6-dimethoxy-p-benzoquinone 100 μg); for zone of inhibition at 200 µg/disc: Staphylococcus aureus, ATCC29213, 24 h
Description: as §1
(§8) A sterile paper disc was impregnated with a sample of the test compound and a minimum of 30 minutes allowed for the solvents to evaporate as far as possible. The disc was then placed on an agar plate onto which the test micro-organism had been inoculated. The plate was then incubated under the conditions described above, following which it was examined visually for signs of bacterial growth. […] The diameter of this zone of “inhibition” was measured using a ProtoCOL™ automated zone sizer (Synbiosis, Cambridge, UK).
(§9) Performance under these conditions can provide a more reliable indication of activity on topical application. For assays conducted using S. aureus strains, the supplements were defibrinated horse blood (5% v/v), lipid (Tween™ 80 at 1% v/v) and sodium chloride (100 mM). For those using Propionibacterium spp. strains, the supplements were lipid (Tween™ 80 at 1% v/v) and sodium chloride (100 mM).
as §5
(§10) For most DDA assays, 200 μg of each compound was loaded onto each disc.

S. aureus ATCC 29213 [4] = experiment: Disc diffusion assay (DDA); format: cell-based, Staphylococcus aureus; details: S. aureus ATCC 29213, unsupplemented agar, 200 μg per disc (thymoquinone 50 μg, 2,6-dimethoxy-p-benzoquinone 100 μg); for zone of inhibition at 200 µg/disc: Staphylococcus aureus, ATCC29213, read-out: DDA (diameter of zone of inhibition)
Description: as §1, §8
(§11) The area of the zone of inhibition was calculated from the measured zone diameter (D) using the formula π(D/2)^2.
as §10

P. acnes NCTC 737 [5] = experiment: MBC assay; format: cell-based, Propionibacterium acnes; details: P. acnes NCTC 737
Description: (§12) The Propionibacterium spp organisms were cultured and maintained on Wilkins-Chalgren Anaerobe Medium (agar and broth) at pH 6.0; cultures were incubated anaerobically at 37° C. for 72 hours.
as §6, §7
(§13) MIC, MBC and DDA assays, as described above, were carried out using a range of different benzoquinones and hydroquinones. Supplemented DDA assays, in the presence of salt and lipid, were also conducted.

P. acnes NCTC 737 [6] = experiment: MIC assay; format: cell-based, Propionibacterium acnes; details: P. acnes NCTC 737; Wilkins-Chalgren broth pH 6.0, anaerobic, 37° C., 72 hours
Description: 2. Propionibacterium spp.—the principal propionibacterial strain used in these studies was Propionibacterium acnes NCTC 737.
as §12, §2, §3, §4, §13

P. acnes NCTC 737 [7] = experiment: Supplemented disc diffusion assay; format: cell-based, Propionibacterium acnes; details: P. acnes NCTC 737
Description: as §12, §8, §9, §13, §10

P. acnes NCTC 737 [8] = experiment: Disc diffusion assay (DDA); format: cell-based, Propionibacterium acnes; details: P. acnes NCTC 737, unsupplemented agar, 200 μg per disc (2,6-dimethoxy-p-benzoquinone 100 μg)
Description: as §12, §8, §11, §10

[9] = defibrinated horse blood 5% v/v
[10] = Staphylococcus aureus, ATCC29213, read-out: MIC
[11] = Staphylococcus aureus, ATCC29213, read-out: MBC
[12] = Tween 80 at 1% v/v, read-out: DDA + lipid
[13] = defibrinated horse blood 5% v/v, read-out: DDA + blood
[14] = sodium chloride 100 mM, read-out: DDA + salt

Compound	MIC (S. aureus ATCC 29213 [1])	MIC/MBC ratio (S. aureus ATCC 29213 [2])	MIC (S. aureus ATCC 29213 [1]; [10])	MBC (S. aureus ATCC 29213 [2])	DDA + lipid (S. aureus ATCC 29213 [3]; Tween 80 at 1% v/v)	DDA + blood (S. aureus ATCC 29213 [3]; [9])	DDA + salt (S. aureus ATCC 29213 [3]; sodium chloride 100 mM)	DDA (diameter of zone of inhibition) (S. aureus ATCC 29213 [4])	MBC (S. aureus ATCC 29213 [2]; [11])	zone of inhibition at 200 µg/disc (S. aureus ATCC 29213 [3]; [12])	zone of inhibition at 200 µg/disc (S. aureus ATCC 29213 [3]; [13])	zone of inhibition at 200 µg/disc (S. aureus ATCC 29213 [3]; [14])	zone of inhibition at 200 µg/disc (S. aureus ATCC 29213 [4])	also measured
CC(C)(C)c1cc(O)c(C(C)(C)C)cc1O [2,5-di-t-butyl-p-hydroquinone]	15.6 µg/mL (≈ 70.2 µM)	1		15.6 µg/mL (≈ 70.2 µM)	10.58 mm	10.89 mm	11.21 mm	10.06 mm						
Cc1cc(O)ccc1O [2-methyl-p-hydroquinone]		1						25.70 mm						MBC (P. acnes NCTC 737 [5]): 125 µg/mL (≈ 1010 µM); MIC/MBC ratio (P. acnes NCTC 737 [5]): 0.5; MIC (P. acnes NCTC 737 [6]): 62.5 µg/mL (≈ 503 µM); DDA + lipid (P. acnes NCTC 737 [7]; Tween 80 at 1% v/v, 200 μg per disc (2,6-dimethoxy-p-benzoquinone 100 μg)): 13.07 mm; DDA + salt (P. acnes NCTC 737 [7]; sodium chloride 100 mM, 200 μg per disc (2,6-dimethoxy-p-benzoquinone 100 μg)): 0.0 mm; DDA (diameter of zone of inhibition) (P. acnes NCTC 737 [8]): 0.0 mm
Cc1cc(O)c(C)c(C)c1O [2,5,6-trimethyl-p-hydroquinone]	7.8 µg/mL (≈ 51.3 µM)	0.25		31.25 µg/mL (≈ 205 µM)	56.97 mm	0.0 mm	61.63 mm	63.40 mm						
O=C1C=CC(=O)C=C1 [p-benzoquinone]													29.3 mm	effect of lipid on antimicrobial activity (P. acnes NCTC 737 [7]; activity increases in the presence of lipid): potentiated; zone of inhibition at 200 µg/disc (P. acnes NCTC 737 [8]; Cutibacterium acnes, NCTC737, read-out: DDA (diameter of zone of inhibition)): 24.9 mm
Oc1ccc(O)c(Cl)c1 [2-chloro-p-hydroquinone]	7.8 µg/mL (≈ 54 µM)	1		7.8 µg/mL (≈ 54 µM)	16.81 mm	13.70 mm	19.30 mm	17.54 mm						
Cc1cccc(O)c1O [3-methylcatechol]		1	62.5 µg/mL (≈ 503 µM)						62.5 µg/mL (≈ 503 µM)	18.7 mm	0 mm	20.2 mm	19.8 mm	

Second part, led by results:

MIC (S. aureus ATCC 29213 [1])	MIC/MBC ratio (S. aureus ATCC 29213 [2])	MIC (S. aureus ATCC 29213 [1]; [10])	Compound	MBC (S. aureus ATCC 29213 [2])	DDA + lipid (S. aureus ATCC 29213 [3]; Tween 80 at 1% v/v)	DDA + blood (S. aureus ATCC 29213 [3]; [9])	DDA + salt (S. aureus ATCC 29213 [3]; sodium chloride 100 mM)	DDA (diameter of zone of inhibition) (S. aureus ATCC 29213 [4])	MBC (S. aureus ATCC 29213 [2]; [11])	zone of inhibition at 200 µg/disc (S. aureus ATCC 29213 [3]; [12])	zone of inhibition at 200 µg/disc (S. aureus ATCC 29213 [3]; [13])	zone of inhibition at 200 µg/disc (S. aureus ATCC 29213 [3]; [14])	zone of inhibition at 200 µg/disc (S. aureus ATCC 29213 [4])	also measured
	<0.5	125 µg/mL (≈ 806 µM)	O=[N+]([O-])c1ccc(O)c(O)c1 [4-nitrocatechol]						> 250 µg/mL	16.5 mm	11.8 mm	19 mm	18.9 mm	
	1		Oc1ccc(O)cc1 [p-hydroquinone]					18.94 mm						
	1	62.5 µg/mL (≈ 376 µM)	CC(C)(C)c1ccc(O)c(O)c1 [4-t-butylcatechol]						62.5 µg/mL (≈ 376 µM)	10.9 mm	9.65 mm	13.1 mm	12 mm	
